Tests used:
[1] = molecular target: deoxy-HbS oligomers (sickle hemoglobin, HbS) (Homo sapiens, UniProt P68871+P69905, E7V); experiment: Dynamic light scattering (DLS) of deoxy-HbS oligomers at sub-nucleating concentration; type: biochemical; details: HbS 25 μM; for size of deoxyHbS oligomers (DLS effective diameter) relative to control: hit compounds 100 μM, two hours at room temperature, degassed with argon, FIG. 4C
Description: (FIG. 4A) Pilot screening with LOPAC library. Compounds that reduced the FRET efficiency below 3SD (black line) were selected for further characterization. […] Fluorescently labeled HbS samples were plated in a 1536 plate and treated separately with DMSO or the three hit compounds, chlormezanone, gabazine, and phosphoramidon disodium, in a dose-dependent manner from 0.1 to 1000 μM for 2 hours at room temperature and then vacuum degassed for 10 minutes, and then donor lifetimes were measured using a fluorescence plate reader. […] HbS samples (25 μM) were incubated separately with hit compounds (100 μM) or DMSO only for two hours at room temperature and degassed with argon for five minutes, and then DLS measurement were taken at room temperature. […] Effect of hit compounds on polymerization of deoxyHbS in high potassium phosphate buffer. Curves represent growth of polymer as a function of time in the presence or absence of drug.

[2] = test system: RBC from individuals with SCD (genotype HbSS); experiment: Microfluidic measurement of oxygen-dependent sickle blood flow; type: cell-based, human; details: for area under the velocity response curve (AUC) relative to control / deceleration rate of blood during deoxygenation: 500 μM, RBC at 25% hematocrit, 7 individuals with SCD, 1 hour at 37° C.; for deceleration rate of blood during deoxygenation: FIG. 8C
Description: We treated RBC suspensions at 25% hematocrit from 7 individuals with SCD (genotype HbSS) with 500 μM of our hit compounds or voxelotor (positive control) and quantified the flow in our microfluidic platform under well-defined oxygen tensions. (FIG. 8A) Representative image of blood flowing in microfluidic device with overlay of arrows representing the velocities of features between frames using the Lucas Kanade Tomasi algorithm. (FIG. 8B) Area under velocity response curve (AUC) comparison among treated samples compared to the vehicle control. (FIG. 8C) Deceleration rate comparison among treated samples compared to the vehicle control. All statistics were performed using a one-tailed Wilcoxon signed rank test, a=0.05, * p-value<0.05, **p-value<0.01
(FIG. 9A) Raw oxygen and velocity recordings during microfluidic experiment. Arrow indicates the change in the steady state mean velocity after introducing hypoxic conditions on the microfluidic chip. (FIG. 9B) The on-chip oxygen concentration is cycled seven times during the experiment between 21% 02 and hypoxia. Changes in the velocity during each cycle are normalized to the average velocity of the initial 21% cycle. (FIG. 9C) Shaded region represents the area under the curve (AUC) using the steady state mean velocity changes at each oxygen concentration. This measurement quantifies the overall oxygen response of the blood by accounting for both the magnitude of the steady state mean velocity drop as well as the persistence of oxygen-dependence at higher oxygen concentrations (FIG. 9D) Blood deceleration is measured by a segmented moving mean of the velocity response during the hypoxic transition using Matlab signal processing.
Blood Sample Collection and Preparation for Microfluidic Assays: Sickle cell patient blood samples were collected under protocols approved by the Institutional Review Boards at Children's Minnesota Hospital, the University of Minnesota Medical Center, and the University of Minnesota. Patient blood samples were collected into sodium citrate vacutainer tubes and stored at 4° C. The samples were prepared for the microfluidic experiments by washing twice with Dulbecco's phosphate buffered saline (DPBS) after centrifugation for 5 minutes at 400g. Packed red blood cells were then isolated by centrifuging the washed samples for 10 minutes at 400g and removing all remaining DPBS. The packed red blood cells were added to fresh DPBS to achieve a target hematocrit of 25%. Each compound of interest was added to the sample to reach a target concentration of 500 uM and incubated at 37° C. for 1 hour before being run on the microfluidic device. The compounds were dissolved in DMSO at a concentration of 100 mM and stored at −20° C. or −80° C. prior to use.
Microfluidic Setup and Experimental Protocol: A previously described (Valdez et al., 2019, APL Bioengineering 3, 046101; Geisness et al., 2022, Haematologica, 107(6); Hansen et al., 2020, Br J Haematol, (2019). Br J Haematol. 188(6): 985-993), polydimethylsiloxane (PDMS) microfluidic device replicating the geometry of the post-capillary venules was used to study blood rheological behavior. […] The microfluidic channels were primed by flowing a 2% bovine serum albumin (BSA) in DPBS solution through the device to passivate the PDMS surface. Blood was then added to the inlet port and flowed through the device under a constant driving pressure to achieve an initial velocity of […] (PCD-15PSIG, Alicat Scientific). At the bifurcation, blood is diverted to two […] square channels—a bypass channel and an experimental channel. Separate gas inlets supply oxygen to each of the two blood channels independently via diffusion from the overlaid gas layer. The bypass channel is supplied with air and maintained under normoxic conditions. […]

SMILES | mean oligomer size of deoxyHbS (DLS effective diameter) ([1]; degassed with argon 5 minutes, room temperature, FIG. 1A) | modification of the hemoglobin ([2]; 500 μM at 25% hematocrit, assuming complete RBC partitioning and 30-36 g/dl intracellular hemoglobin) | area under the velocity response curve (AUC) relative to control [2] | deceleration rate of blood during deoxygenation [2] | size of deoxyHbS oligomers (DLS effective diameter) relative to control [1]
CC(C)n1nccc1-c1ncccc1COc1cccc(O)c1C=O [voxelotor] | dramatically reduced the mean oligomer size | 35-45% | significantly reduced the mean AUC | significantly reduced the deceleration rate | 
CN1C(=O)CCS(=O)(=O)C1c1ccc(Cl)cc1 (stereo not shown) [chlormezanone] |  |  | significantly reduced the mean AUC | significantly reduced the deceleration rate | significantly decreased the oligomer size
COc1ccc(-c2ccc(=N)n(CCCC(=O)O)n2)cc1 [gabazine] |  |  | insignificant trend towards reduced AUC | significantly reduced the deceleration rate | significantly decreased the oligomer size

From patent US20230095509A1, “NON-FIBRILLAR HEMOGLOBIN S OLIGOMERS AND METHODS TO IDENTIFY MODULATORS OF HEMOGLOBIN S POLYMERIZATION” (REGENTS OF THE UNIVERSITY OF MINNESOTA, priority 2021, published 2023)
